# Laboratory results: patent publication US5641793A, “Pyridine compounds which have useful pharmaceutical activity” (Zeneca Limited, priority 1994, dated 1997)
# Key:
# [1] = system: Human ETA or ETB receptors; assay: Test A: inhibition of [125I]-Endothelin-1 binding to MEL cell membranes expressing recombinant receptor; conditions: inhibition of 30 pM [125I]-Endothelin-1 binding; receptor sub-type (ETA or ETB) not given
# Description: The endothelin receptor antagonist activity of compounds of formula I may be assessed in vitro by their ability to inhibit binding of [^125 I]-Endothelin-1 to its receptors. Human ETA or ETB receptors (sub-types of the endothelin receptor) were expressed in Mouse Erythroleukemic Cells (MEL cells) by using standard molecular techniques (for example, as described by Sambrook J., Fritsch E. F. & Maniatis T. (1989) Molecular Cloning: A Laboratory Manual, 2nd Edition, Cold Spring Harbor Press, U.S.A.). cDNA sequences encoding the human ETA and ETB receptor (Hosoda K. et al (1991), FEBS Lett., 287, 23-26 and Sakamoto A. et al, (1991), Biochem. Biophys Res. Comm., 178, 656-663) are subcloned into pBluescript vector followed by insertion into the MEL cell expression vector pEV as described by Needham et al (1992), Nuc. Acids Res., 20, 997-1003. […]
# [^125 I]-Endothelin-1 binding to MEL cell membranes was measured in incubation buffer containing 50 mM Tris HCl, 1 mM CaCl2, 0.05% polyoxyethylenesorbitan monolaurate, 0.1% Bovine Serum Albumin (BSA), 0.02% sodium azide pH 7.4 at 30° C. after 180 minutes incubation. […] Nonspecific binding was measured in the presence of 100 nM unlabelled Endothelin-1. […] The filter discs were punched out and counted in a gamma counter. Compounds are tested in triplicate over a range of concentrations and IC50 (or pIC50) values calculated.
# endothelin receptor = assay: Test B: inhibition of the relaxant response to endothelin-1 in guinea-pig isolated taenia coli; conditions: antagonism of endothelin-1 relaxation, initial test concentration 20 μM
# Method: The endothelin receptor antagonist activity of compounds of formula I may be assessed in vitro in isolated tissues by their ability to inhibit the relaxant response to endothelin-1 in the guinea-pig isolated taenia coli. Guinea pigs of either sex and weight >250 g are killed by cervical dislocation and the caecum removed and placed in cold oxygenated Krebs solution. Strips of taenia coli are dissected out and approximately 4 cm lengths set up for isotonic recording in a 20 ml organ bath containing oxygenated Krebs solution at 32° C. After a […] equilibration period to allow the tissue to spontaneously develop an increased tone, a cumulative concentration-response curve (relaxation) is constructed to endothelin-1 (0.3-10 nM). The tissue is then washed for a period of at least 90 minutes before construction of a second concentration-response curve to endothelin-1 in the presence of the test compound. The test compound is added to the organ bath (at an initial concentration of 20 μM) at least 30 minutes before constructing the second concentration-response curve to endothelin-1. The endothelin-1 concentration ratio for each experiment is determined by comparing the most parallel portions of the control and drug treated concentration-response curves. From this a pA2 is calculated: pA2 =-log[molar drug concentration]+log[concentration ratio-1].
compound,measurement,setting,value
"Cc1cc(Br)cnc1NS(=O)(=O)c1cccc2c(N(C)C)cccc12 [Example 6, 5-(dimethylamino)-N-(5-bromo-3-methyl-2-pyridyl)-1-naphthalenesulphonamide]",pIC50 in test A,[1],6.5
same,pA2 in test B,endothelin receptor,6.6
